From US8536120B2 (The Administrators of The Tulane Educational Fund, priority 2006, dated 2013) come the findings set out here.

Where “and” joins values, the source holds several entries; their conditions need not be identical. Identical values can stand only once. Where no end group is shown, it is not given here. [ ]: non-standard residue; d: D form. d2Nal = N[C@H](Cc1ccc2ccccc2c1)C(=O)O

Experiment [1] addresses T1, Ghrelin/GHRP/GHS Receptor (Rattus norvegicus, UniProt O08725). The experiment is described as follows: In vitro cell culture method: GH release from cell culture of pituitary cells, peptide alone or plus stimulator. The note with it: for GH release, first line of entry (mark P + S): stimulator 1 ng/ml; for Unstimulated Basal GH release: Table 8. The format is cell-based. Also on record: from cell culture of pituitary cells; endogenous in cells; host or cells: dispersed primary rat anterior pituitary cells, 4 days in culture. The protocol: (§1) The peptides were synthesized by the solid phase method and purified by HPLC. GH was determined by Radioimmunoassay (RIA).
In vitro GH Release-Female rats of the CD-1 strain were housed in a constant temperature room at 24° C. with 14 h light and 10 h darkness. The rats were fed Purina Rat chow and water at libitum. All studies were started between 0800-1000 hours. Pituitaries of mature female Sprague Dawley rats were rapidly removed after decapitation, neurointermediate lobe discarded and then placed in a pH 7.4 buffer. The pituitaries were cut into ˜3-mm pieces and then transferred to a flask containing HEPS buffer with trypsin and incubated at 37° C. Cells were triturated several times during this period. After dispersion, the cells were collected by centrifugation, wash with DMEM and placed into culture well. Cell cultures were maintained for 4 days at 37° with 8% CO2 added to the incubator atmosphere. After 4 days in culture, cells were washed with lactated Ringer's solution adjusted to pH 7.2-7.4 and then vehicle, peptide alone or peptide plus stimulator was added to media. Incubation time was 60-120 minutes after which media was removed from each well for GH determination. The GH RIA reagents were distributed by the NIH. Control data was collected from cell cultures treated with only the corresponding vehicle in the absence of peptide or stimulator. Control stimulated data was collected from cell cultures treated with stimulator alone in the absence of any peptide.

Experiment [2] has as its target T1, Ghrelin/GHRP/GHS Receptor. The experiment is described as follows: In vivo assay of GH release in rat, i.v. peptide alone or plus stimulator, serum GH by RIA. As to conditions: Table 4; Pentobarbital Rats; peptide 30 μg i.v. + stimulator DAla-DβNal-Ala-Trp-DPhe-Lys-NH2 1 μg. As to the method: as §1
For the in vivo assay of GH Release in rat, immature female Sprague Dawley rats were obtained from Charles River from Wilmington, Mass. After arrival they were housed at 25° C. with a 14:10 h light:dark cycle. Water and Purina rat chow were available at libitum. Pups were weaned at 21 days of age.
Immature twenty six day old female Sprague Dawley rats, 3-6 rats per treatment dose, were pretreated with pentobarbital 20 minutes before iv injection of vehicle/peptide or peptide plus stimulator. Injection was made as a 0.1 ml solution. For the non-pentobarbital treated rat assay, peptides were administered iv into the tail vein of conscious rats. All animals were sacrificed by guillotine after iv peptide or vehicle. Trunk blood was collected at +10-15 minutes […], allowed to clot, centrifuged and serum stored until assayed for GH levels by RIA. The GH RIA reagents were distributed by the NIH. Control data was collected from rats treated with only the corresponding vehicle in the absence of peptide or stimulator. Control stimulated data was collected from rats treated with stimulator alone in the absence of any peptide.

T1 sequence (O08725 whole entry): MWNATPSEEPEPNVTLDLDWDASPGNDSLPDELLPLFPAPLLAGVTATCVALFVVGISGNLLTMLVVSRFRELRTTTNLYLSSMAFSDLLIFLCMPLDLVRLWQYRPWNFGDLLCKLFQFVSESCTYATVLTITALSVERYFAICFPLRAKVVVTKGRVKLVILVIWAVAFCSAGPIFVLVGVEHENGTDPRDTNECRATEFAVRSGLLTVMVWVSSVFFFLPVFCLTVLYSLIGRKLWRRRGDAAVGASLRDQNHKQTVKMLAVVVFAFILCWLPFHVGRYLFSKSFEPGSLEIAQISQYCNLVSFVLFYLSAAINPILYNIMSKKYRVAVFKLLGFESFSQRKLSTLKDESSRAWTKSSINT

As for `COC(=O)c1cc2ccccc2cc1C(=O)Nc1ccc(C)cc1` [methyl 3-(p-tolylcarbamoyl)-2-naphthoate], in experiment [1] (Table 11, 10 μg/ml), the “GH release, second line of entry (no mark)” value (from here on “GH release … (no mark)”) is 1149 ± 33 ng/mL and the “GH release, first line of entry (mark P + S)” value (“GH release … (mark P + S)” below) came out at 754 ± 32 ng/mL. Further, in experiment [1] (Table 11, 30 μg/ml), the “GH release … (no mark)” value came out at 886 ± 29 ng/mL and the “GH release … (mark P + S)” value was determined as 498 ± 26 ng/mL.

Turning to `COc1ccccc1C1CCN(C(=O)[C@@H](Cc2c[nH]c3ccccc23)NC(=O)C(C)(C)N)CC1` [(R)—N-(3-(1H-indol-3-yl)-1-(4-(2-methoxyphenyl)piperidin-1-yl)-1-oxopropan-2-yl)-2-amino-2-methylpropanamide], the “GH release … (no mark)” value in experiment [1] (Table 11, 10 μg/ml) is 441 ± 21 ng/mL; in experiment [1] (Table 11, 30 μg/ml) it was 384 ± 16 ng/mL. Also, the “GH release … (mark P + S)” value in experiment [1] (Table 11, 10 μg/ml) stood at 365 ± 2 ng/mL; in experiment [1] (Table 11, 30 μg/ml) it was 375 ± 30 ng/mL.

As for `CC(=O)N[C@@H](COCc1ccccc1)C(=O)N[C@@H](CCCCN)C(=O)N[C@H](Cc1c[nH]c2ccccc12)C(=O)N1CCC(c2ccccc2)CC1` [(S)—N—((R)-3-(1H-indol-3-yl)-1-oxo-1-(4-phenylpiperidin-1-yl)propan-2-yl)-2-((S)-2-acetamido-3-(benzyloxy)propanamido)-6-aminohexanamide], the “GH release … (mark P + S)” value in experiment [1] (Table 11, 1 μg/ml) was determined as 680 ± 13 ng/mL; in experiment [1] (Table 11, 3 μg/ml), 489 ± 41 ng/mL; in experiment [1] (Table 11, 10 μg/ml), 245 ± 16 ng/mL.

Turning to `N[C@H](Cc1c[nH]c2ccccc12)C(=O)N1CCC(c2ccccc2)CC1` [DTrp-4-phenylpiperdinamide, (R)-2-amino-3-(1H-indol-3-yl)-1-(4-phenylpiperidin-1-yl)propan-1-one], the “GH release … (no mark)” value in experiment [1] (Table 10, 1 μg/ml) was determined as 1085 ± 1 ng/mL; in experiment [1] (Table 10, 3 μg/ml), 917 ± 4 ng/mL; in experiment [1] (Table 10, 10 μg/ml) it was 344 ± 6 ng/mL; in experiment [1] (Table 10, 30 μg/ml), 486 ± 29 ng/mL. Besides, the “GH release … (mark P + S)” value in experiment [1] (Table 10, 1 μg/ml) is 815 ± 26 ng/mL; in experiment [1] (Table 10, 3 μg/ml), 390 ± 35 ng/mL; in experiment [1] (Table 10, 10 μg/ml) it was 520 ± 61 ng/mL; in experiment [1] (Table 10, 30 μg/ml), 577 ± 24 ng/mL.

With `NCC[C@H](N)C(=O)N[C@H](COCc1ccc2ccccc2c1)C(=O)N1CCC(c2ccccc2)CC1` [(S)-2,4-diamino-N—((R)-3-(naphthalen-2-ylmethoxy)-1-oxo-1-(4-phenylpiperidin-1-yl)propan-2-yl)butanamide], in experiment [1] (Table 11, 10 μg/ml), the “GH release … (no mark)” value was determined as 644 ± 33 ng/mL and the “GH release … (mark P + S)” value stood at 794 ± 34 ng/mL. Moreover, in experiment [1] (Table 11, 30 μg/ml), the “GH release … (no mark)” value was 529 ± 20 ng/mL and the “GH release … (mark P + S)” value stood at 504 ± 20 ng/mL.

As to `NCCCC[C@@H](NC(=O)[C@@H](CO)NC(=O)c1ccccc1)C(=O)N[C@@H](Cc1c[nH]c2ccccc12)C(=O)N1CCC(c2ccccc2)CC1` [N—((R)-1-((R)-1-((S)-3-(1H-indol-3-yl)-1-oxo-1-(4-phenylpiperidin-1-yl)propan-2-ylamino)-6-amino-1-oxohexan-2-ylamino)-3-hydroxy-1-oxopropan-2-yl)benzamide], in experiment [1] (Table 10, 3 μg/ml), the “GH release … (no mark)” value came to 432 ± 25 ng/mL and the “GH release … (mark P + S)” value is 393 ± 54 ng/mL. In experiment [1] (Table 10, 10 μg/ml), the “GH release … (no mark)” value was found to be 353 ± 10 ng/mL and the “GH release … (mark P + S)” value stood at 369 ± 30 ng/mL.

As for `C=C(C)CON=C(c1ccccc1)c1ccccc1` [O-(2-methylallyl) benzophonone oxime, O-(2-methylallyl)benzophenone oxime], the “GH release … (no mark)” value stood at 1281 ± 58 ng/mL in experiment [1] (Table 10, 10 μg/ml) and 699 ± 53 ng/mL in experiment [1] (Table 10, 30 μg/ml). The “GH release … (mark P + S)” value came to 929 ± 28 ng/mL in experiment [1] (Table 10, 10 μg/ml) and 616 ± 23 ng/mL in experiment [1] (Table 10, 30 μg/ml).

As for `CC(=O)NCCCC[C@H](NC(=O)[C@@H](N)COCc1ccccc1)C(=O)N[C@@H](Cc1c[nH]c2ccccc12)C(=O)N1CCC(c2ccccc2)CC1` [(S)—N—((S)-3-(1H-indol-3-yl)-1-oxo-1-(4-phenylpiperidin-1-yl)propan-2-yl)-6-acetamido-2-((S)-2-amino-3-(benzyloxy)propanamido)hexanamide], in experiment [1] (Table 10, 10 μg/ml), the “GH release … (no mark)” value came out at 571 ± 32 ng/mL and the “GH release … (mark P + S)” value was found to be 388 ± 41 ng/mL. Also, in experiment [1] (Table 10, 30 μg/ml), the “GH release … (no mark)” value is 399 ± 24 ng/mL and the “GH release … (mark P + S)” value came to 273 ± 39 ng/mL.

With `CCOC(=O)c1cc2ccccc2cc1C(=O)N1CCC(c2ccccc2OC)CC1` [ethyl 3-(4-(2-methoxyphenyl)piperidine-1-carbonyl)-2-naphthoate], in experiment [1] (Table 10, 10 μg/ml), the “GH release … (no mark)” value turned out to be 480 ± 9 ng/mL and the “GH release … (mark P + S)” value was 373 ± 2 ng/mL. Moreover, in experiment [1] (Table 10, 30 μg/ml), the “GH release … (no mark)” value worked out at 223 ± 22 ng/mL and the “GH release … (mark P + S)” value was 176 ± 11 ng/mL.

Turning to [dA][d2Nal][dK][dW]FK-NH2, the “Stimulated GH release (P + S)” value in experiment [2] is 2884 ± 828 ng/mL.

As to `N[C@H](COCc1ccccc1)C(=O)N1CCN(c2ccccc2)CC1` [D Ser(BZL)-N′-phenyl-N-piperazinamide, (R)-2-amino-3-(benzyloxy)-1-(4-phenylpiperazin-1-yl)propan-1-one], in experiment [1] (Table 10, 10 μg/ml), the “GH release … (no mark)” value was 719 ± 26 ng/mL and the “GH release … (mark P + S)” value is 585 ± 10 ng/mL. In experiment [1] (Table 10, 30 μg/ml), the “GH release … (no mark)” value was 435 ± 0 ng/mL and the “GH release … (mark P + S)” value is 368 ± 2 ng/mL.

For the compound `COc1ccccc1N1CCN(C(=O)c2cc3ccccc3cc2C(=O)N2CCN(c3ccccc3OC)CC2)CC1` [naphthalene-2,3-diylbis((4-(2-methoxyphenyl)piperazin-1-yl)methanone)], the “GH release … (no mark)” value in experiment [1] (Table 10, 1 μg/ml) was 654 ± 18 ng/mL; in experiment [1] (Table 10, 3 μg/ml) it was 442 ± 4 ng/mL; in experiment [1] (Table 10, 10 μg/ml), 537 ± 28 ng/mL and 648 ± 16 ng/mL; in experiment [1] (Table 10, 30 μg/ml), 309 ± 46 ng/mL. The “GH release … (mark P + S)” value in experiment [1] (Table 10, 1 μg/ml) was 338 ± 3 ng/mL; in experiment [1] (Table 10, 3 μg/ml), 204 ± 10 ng/mL; in experiment [1] (Table 10, 10 μg/ml) it was 262 ± 4 ng/mL and 136 ± 11 ng/mL; in experiment [1] (Table 10, 30 μg/ml), 118 ± 8 ng/mL.

For `CC(C)(N)C(=O)N[C@H](COCc1ccccc1)C(=O)N1CCN(c2ccccc2)CC1` [αAibDSer(BZL)-N′-phenyl-N-piperazinamide, (R)-2-amino-N-(3-(benzyloxy)-1-oxo-1-(4-phenylpiperazin-1-yl)propan-2-yl)-2-methylpropanamide], in experiment [1] (Table 10, 10 μg/ml), the “GH release … (no mark)” value amounted to 878 ± 30 ng/mL and the “GH release … (mark P + S)” value was 777 ± 34 ng/mL. Moreover, in experiment [1] (Table 10, 30 μg/ml), the “GH release … (no mark)” value came out at 510 ± 15 ng/mL and the “GH release … (mark P + S)” value is 499 ± 18 ng/mL.

With “DAla-DcyclohexylAla-Ala-Ala-Phe-DPhe-Nle-NH2”, the “Unstimulated Basal GH release” value in experiment [1] (peptide 1 μg/ml) was found to be 286 ± 75 ng/mL; in experiment [1] (peptide 3 μg/ml), 177 ± 44 ng/mL; in experiment [1] (peptide 10 μg/ml), 271 ± 38 ng/mL; in experiment [1] (peptide 30 μg/ml), 376 ± 28 ng/mL.
